The text below walks through data of patent US20260076346A1, “IMMUNODEFICIENT NON-HUMAN ANIMALS FOR ASSESSING DRUG METABOLISM AND TOXICITY” (UNIVERSITY OF DUNDEE, priority 2022, published 2026).

Assay [1] concerns 5555 murine melanoma cell line. To be noted: reported by Hirata et al.; cited from earlier work.
For assay [2], the system named is 5555 murine melanoma cell line. To be noted: reported by Hirata et al.; cited from earlier work. This is another data set of the same source.
In assay [3] the test system is 5555 murine melanoma cells. Briefly: Syngeneic graft of 5555 murine melanoma cells in 8HUM mice, tumour volume under daily oral treatment. Type of assay: in vivo, mouse. To be noted: adult female 8HUM mice, n=5, 31.5 mg/kg daily p.o. from day 5 after implantation, study ended day 15, versus vehicle. On the procedure:
FIG. 1: A. Xenograft of BRAFV600E human melanoma A375 cells in Rag2^null/8HUM mice (top). Bottom-no growth of A375 cells in immunocompetent 8HUM mice. B. Growth of a murine melanoma syngeneic graft in 8HUM mice and response to dabrafenib treatment. Adult female 8HUM_Rag2−/− mice (18-21w, n=5) were injected subcutaneously (s.c.) in one flank with 3.5×10^6 5555 murine melanoma cells, in 100 μl ECM diluted 1:1 with DMEM. […] Tumour measurements were taken three times weekly, then daily as required, and tumour volume calculated as detailed in Methods section. […]
Data analysis: Dependencies of calculated tumour volumes versus time were analysed by non-linear regression using exponential growth and exponential decay functions (Prism 5 software, Graphpad, US). […]
A375 human melanoma cells (ATCC: CRL-1619; RRID: CVCL_UD29) and 5555 murine melanoma cells (19-21) were grown as directed, with the latter subject to commercial murine pathogen testing (IDEXX Bioanalytics GmbH, Germany) and both to in-house mycoplasma testing (MycoAlert Mycoplasma Detection kit, Lonza Rockland, USA) before use. Passage number was recorded for each study. […]
Once established, tumours were measured twice in two dimensions (maximum breadth and length) using digital callipers, by the same person to avoid interindividual variation. […]

Assay [4] has as its system BRAFV600E human melanoma A375 cells. Briefly: A375 human melanoma xenograft in 8HUM_Rag2-/- mice, tumour volume under daily oral treatment. Type of assay: in vivo. To be noted: adult female 8HUM_Rag2-/- mice. On the technique in general: Xenograft models place foreign cells or tissue in a host animal.
Experimental: Adult female 8HUM mice (11-19w, n=3) were injected s.c. in both flanks with 4.4×10^6 A375 melanoma cells, in 100 μl DMEM. Tumours were allowed to establish and on day 28 after implantation daily treatment was commenced with either vehicle (0.5% (w/v) hydroxypropylmethylcellulose, 0.2% (v/v) Tween-80; closed circles) or dabrafenib (in vehicle, open circles) suspended at 6.3 mg/ml and administered at 5 ml/kg, such that dabrafenib dose administered was 31.5 mg/kg (arrow). Tumour measurements were taken three times weekly, then daily as required, and total volume of tumours on both flanks was calculated as detailed in Methods section.
Adult female (>8<22 weeks) mice were randomly allocated into control or experimental groups and allowed to adapt to their social setting for 7d before study start. Cages were adjacent to each other on the same level of a ventilated rack, in the same room, for the study duration.
Data analysis: Dependencies of calculated tumour volumes versus time were analysed by non-linear regression using exponential growth and exponential decay functions (Prism 5 software, Graphpad, US). Rate constants in both functions were constrained to positive values to maintain consistency with the function name. Values for plateau parameters in exponential decay function were set to zero.

Entries after “also recorded” stand apart in the source; their conditions may differ.

Consider `CCCS(=O)(=O)Nc1ccc(F)c(C(=O)c2c[nH]c3ncc(Cl)cc23)c1F` [PLX4720], for which the “sensitivity of 5555 cell line in vivo” value in assay [1] is listed as “refractory”. In addition, in assay [2], the “sensitivity of 5555 cell line in vitro” value was “sensitive”.
For `CC(C)(C)c1nc(-c2cccc(NS(=O)(=O)c3c(F)cccc3F)c2F)c(-c2ccnc(N)n2)s1` [dabrafenib], the “tumour growth / mean tumour volume of 5555 (GM5555) murine melanoma syngeneic graft” value is recorded as “became almost undetectable; also recorded: exquisitely sensitive” in assay [3] and “successfully inhibited” in assay [3] (listed as Dabrafenib). Further, in assay [4] (A375 xenograft, 31.5 mg/kg daily p.o. d28-d35, vehicle group followed exponential growth), the “fit of tumour volume versus time by non-linear regression (exponential growth or decay)” value is given as “follows exponential decay dependency”. Moreover, the “total mean tumour volume of A375 xenograft (both flanks)” value in assay [4] (n=3, 31.5 mg/kg daily p.o. from d28 to d35, versus vehicle) is listed as “shrank in size”.
